“Also recorded” adds a separate entry of the source. Read-outs that look alike come from different tables or passages of the source.
Assays:
[1] = test system: mushroom tyrosinase; assay: Spectrophotometric (UV-Vis) detection of tyrosinase inhibitory activity; type: biochemical; conditions: for tyrosinase inhibition in words, tyrosine versus dopamine as substrate: UV-Vis, absorbance at 311 or 472 nm, Figure 3
Experimental: Kinetic assays were carried out by measuring the appearance of the product of either tyrosine or dopamine oxidation in the reaction medium at 311 and 472 nm, respectively, in a Shimadzu UV-2501 spectrophotometer (Shimadzu, Kyoto, Japan) equipped with the UV-Probe software, using a tandem quartz cuvette (Hellma, Milan, Italy) with a 2 × 4.375-mm path length [1, 2, 51]. Briefly, one side of the dual chamber cuvette was filled with 1000 µl of mushroom tyrosinase solution in 50 mM phosphate buffer, pH 6.8, 166 Units/mL using tyrosine as substrate or a 16.6 Units/mL when dopamine was used as substrate. The other chamber was loaded with 980 µL of substrate solution (180 µM tyrosine or 18 µM dopamine) in 20 mM phosphate buffer (pH 6.8) added of either 20 µL of DMSO (control) or 20 µL of a 2 mM (0.2 mM in dopamine experiments) solution of tested inhibitors in DMSO. A background spectrum in the 250–700 nm range was acquired with a 2.0 nm slit and fast speed before starting the reaction. Thereafter, the solutions in the two chambers were mixed by inversion and the UV-Vis spectra were acquired at increasing time intervals. Spectra were recorded at 311 or 472 nm in the presence of the inhibitor before mixing, and after either 24 or 10 min, using tyrosine or dopamine as a substrate, respectively. Data processing was performed with UV Probe and OriginPro 2019 (v. 9.60) softwares.
The mushroom tyrosinase was used as purchased without further purification. All solutions (tyrosinase, substrates and inhibitors) were filtered through a 0.45-μm syringe filter, aliquoted in Eppendorf tubes, and stored in freezer. The relative concentration was determined spectrophotometrically (εtyrosine 274.6 nm = 1420 M^−1·cm^−1; εdopamine at 280 nm = 2670 M^−1·cm^−1; εtyrosinase at 280 nm = 1426 M^−1·cm^−1).
Tyrosine was dissolved in 50 mM phosphate buffer, pH 6.8, final concentration 80 µM and with the added inhibitor (final concentration 20 µM) and tyrosinase (83 U/mL). The absorbance values were determined after 24 min of incubation. In the presence of dopamine, experiments were performed using 10-fold diluted solutions, and the absorbance values were determined after 10 min of incubation.

[2] = test system: Tenebrio molitor; assay: Insecticidal properties on mealworm larvae; type: in vivo; conditions: for pest or weed control at 6400 µg/mL: Tenebrio molitor, topical, 120 h, read-out: Mortality% (Mean ± SD)
Experimental: Late instar larvae of Tenebrio molitor from a twenty-year-old insect culture at the Research Institute on Terrestrial Ecosystems (National Research Council, Sassari, Italy) were used in the experiments. The species was reared on bran flour, with the integration of fresh vegetables, at 25 °C, 65% relative humidity and 16:8 hours light/darkness.
One hundred medium instar larvae were isolated in a petri dishes (diam. 50 mm). They were then immersed for three seconds in 2.5 mL of an acetone solution (concentration 6.4 mg/mL w:v) of one of the fourteen compounds listed in Table 3. In addition, a treatment with the commercial formulation Dimilin (WP, 25% a.i. diflubenzuron) (acetone solution, 25.6 mg/mL w:v) and a negative control (no treatment) were tested.
After treatment, the larvae were subdivided into five 20-specimen groups and reared for five days in a small PVC box (150 L × 120 W × 50 H mm) with the same feed and conditions as standard rearing. Mortality was recorded daily.
The statistical analysis was conducted with the R software (R Development Core Team 2016). Mortality data, expressed as a percentage, were arcsin(√x)-transformed to satisfy assumptions of normality. ANOVA was performed by the Duncan test for mean separation.

[3] = target: T1, tyrosinase (Agaricus bisporus, UniProt C7FF04); conditions: cited from earlier work; for tyrosinase inhibitory activity compared with biphenol 1: spectrophotometric and electrochemical assays
[4] = test system: laccase; assay: Laccase amperometric biosensor: IC50 and type of inhibition; type: biochemical; conditions: for VMAX, substrate + inhibitor, LAC: dopamine calibration 0-140 mM after inhibitor exposure, n=4 biosensors; for IC50: enzyme immobilized on biosensor, dopamine 50 µM, PBS pH 6.0; for Type of Inhibition Laccase: Lineweaver-Burk plot, biosensor exposed 30 min to twice the lowest inhibiting concentration
Experimental: (§1) Inhibition types and IC50 were assessed by means of carbon-based amperometric biosensors [61, 62, 63, 64, 65], that are described in the Supplementary Materials. During the experiments carried out to determine the IC50 values, the lowest inhibitory concentration of each compound was also evaluated.
(§2) To verify the inhibition types, the following protocol was used. An initial calibration with dopamine, ranging between 0 and 140 mM, was performed in order to ascertain the values of VMAX and KM. Another calibration with the same protocol was performed after having exposed the biosensors to twice the lowest inhibiting concentration of each inhibitor, in order to ensure the safe inhibition of enzymatic activity. The biosensors were exposed to the inhibitor for 30 min and after having reached a stabile baseline, a calibration with dopamine, ranging between 0 and 140 mM, was performed and the value of VMAX and KM were calculated. The variations of both VMAX and KM were then analyzed by using the Lineweaver-Burk plot in order to identify the type of inhibition induced by the tested compound. The statistical difference in VMAX and KM, before exposing the biosensors to the inhibitor and then afterwards, was calculated by means of a paired t-test (p < 0.05).
(§3) The biosensors were prepared starting from a Teflon™-insulated silver wire (30 mm in length; Ø = 125 μm),
(§4) Briefly, 1 mm of the silver wire was exposed and then introduced into a silica
(§5) capillary cylinder (10 mm in length; I.D. Ø = 180 μm, Polymicro Technologies, Phoenix, AZ, USA) partly
(§6) packed with graphite-loaded (55% w/w) epoxy resin. By mixing 850 mg of graphite with 500 mg of Araldite-
(§7) M and 200 mg of hardener, a preliminary disc electrode of carbon-composite was fabricated (Ø = 180 μm; area:
(§8) 2.5 × 10−4 cm2) by filling the silica capillary tubing with the mixture. The silver wire assured a good electrical
(§9) contact. After 24 h at 40 °C, the electrode surface was cleaned using a high-speed drill (Dremel® 300) equipped
(§10) with an aluminum oxide grinding wheel. On top of the electrode surface a 1 µl of Tyrosinase or Laccase
(§11) solution was deposited. After the complete evaporation of water at room temperature, the biosensor was
(§12) quickly dipped in the polyurethane solution in order to entrap the enzyme on the electrode surface, and after
(§13) the complete evaporation of the solvent biosensors were put to stabilize in PBS pH=6.0 overnight.
(§14) The electrochemical measurements were performed at room temperature in a classical three-electrode
(§15) electrochemical cell consisting of four biosensors as working electrodes, a reference electrode (Ag/AgCl in
(§16) Constant potential amperometry (CPA) was used for in-vitro calibrations and for inhibition evaluation
(§17) experiments by applying a constant potential of -50 mV against an Ag/AgCl reference electrode, by means of
(§18) a four-channel potentiostat (eDAQ Quadstat, e- Corder 410, eDAQ Europe, Poland) and the software Chart (v
(§19) 5.5, eDAQ Europe, Poland). Thus, once the stabilization of the baseline of biosensors was reached, increasing
(§20) volumes of a stock solution of dopamine 1 M were added in order to obtain different concentrations ranging

[5] = test system: PC12 cells; assay: Viability of PC12 cells (MTT assay); type: cell-based, rat; conditions: for Toxic Concentration: cell viability < 80%, screening from 1 to 40 μM, 24 h; for toxicity to cells in words: significant (p < 0.05) decrease in viability vs control, from 5 μM up to 40 μM
Experimental: Initially, the inhibitor concentrations on PC12 cells, i.e., a rat pheochromocytoma-derived cell line, were screened to assess the possible cytotoxicity of the molecules under study [55].
(§21) 1.4 Viability and oxidative stress assays
(§22) PC12 cells, rat pheochromocytoma-derived cell line (ATCCCRL-1721) (passages 12–25) were maintained at 37
(§23) °C humidified air containing 5% CO2/95% atmospheric air and cultured in a 60 mm plastic culture plates with
(§24) Dulbecco’s modified Eagle’s medium supplemented with 10% horse serum, 5% fetal bovine serum and 1% of
(§25) penicillin/streptomycin. PC12 cells were treated for 24 h with the different compounds at different
concentrations ranging from 1 to 40 μM, to evaluate their eventual toxicity.
(§26) For all treatments cell viability was measured by means of MTT assay, as explained in
the following paragraph [17].
(§27) At the end of the exposure time of each experiment, the cell viability was assessed by means of MTT (3-(4,5-
(§28) dimethyl-thiazol-2-yl)-2,5-diphenyltetrazoliumbromide) assay. For this purpose, 1 mg/mL of MTT was added
(§29) to each sample and incubated for 4 h at 37 °C. Only viable cells are able to convert the soluble dye MTT into
(§30) the insoluble formazan crystals. After the incubation the MTT supernatant solution was removed, the cells
(§31) were washed in phosphate-buffered saline (PBS) and centrifuged while the pellet was dissolved in 2 mL of
(§32) isopropanol. After centrifugation of the solution at 4,000 rpm for 5 min, the absorbance for each sample was
(§33) assessed by means of a Bauty Diagnostic Microplate Reader at 578 nm. All experiments were performed in 24-
(§34) well plates (1 × 10^5 cells/mL/well) and repeated in triplicate.

[6] = test system: PC12 cells; assay: Protection of PC12 cells against H2O2-induced oxidative stress (MTT); type: cell-based, rat; conditions: for change of cell viability versus H2O2 alone, in words: co-treatment with 100 μM H2O2, compounds 1 up to 20 μM; for H2O2 Damage Protection: concentration with significant increase in viability vs H2O2, co-treatment with 100 μM H2O2, n.p.: no protection
Experimental: as §21, §22, §23, §24, §25
concentrations ranging from 1 to 40 μM, to evaluate their eventual toxicity. Then, in order to assess the
eventual compounds’ protection properties, PC12 cell treated with hydrogen peroxide (100μM) in association
with increasing concentration of the above-mentioned molecules, from 1 up to 20 μM.
as §26, §27, §28, §29, §30, §31, §32, §33, §34

[7] = target: T1, tyrosinase; assay: Tyrosinase amperometric biosensor: IC50 and type of inhibition; type: biochemical; conditions: for Type of Inhibition Tyrosinase: Lineweaver-Burk plot, biosensor exposed 30 min to twice the lowest inhibiting concentration; for VMAX, substrate + inhibitor, TYR: dopamine calibration 0-140 mM after inhibitor exposure, n=4 biosensors;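 on all read-outs here: Carbon-composite amperometric tyrosinase biosensors with polyurethane-entrapped enzyme, calibrated in a three-electrode cell against Ag/AgCl at room temperature, before versus after inhibitor exposure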
Experimental: as §1, §2, §3, §4, §5, §6, §7, §8, §9, §10, §11, §12, §13, §14, §15, §16, §17, §18, §19, §20

[8] = larvae immersed three seconds in 2.5 mL acetone solution 6.4 mg/mL, reared five days, DFB as Dimilin WP 25% a.i., 25.6 mg/mL

T1 sequence (C7FF04 2-392): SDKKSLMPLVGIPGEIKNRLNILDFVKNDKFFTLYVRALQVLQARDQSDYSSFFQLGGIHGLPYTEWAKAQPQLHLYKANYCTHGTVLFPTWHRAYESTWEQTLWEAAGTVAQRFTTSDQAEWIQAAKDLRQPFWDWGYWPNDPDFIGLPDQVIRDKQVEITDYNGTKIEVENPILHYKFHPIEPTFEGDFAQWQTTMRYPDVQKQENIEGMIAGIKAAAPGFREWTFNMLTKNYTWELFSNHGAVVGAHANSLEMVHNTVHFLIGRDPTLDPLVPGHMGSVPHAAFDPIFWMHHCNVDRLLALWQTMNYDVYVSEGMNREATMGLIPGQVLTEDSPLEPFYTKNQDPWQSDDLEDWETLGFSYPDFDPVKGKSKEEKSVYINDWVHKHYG

| SMILES | tyrosinase inhibition in words, tyrosine versus dopamine as substrate [1] | pest or weed control at 6400 µg/mL [2, 8] [%] | VMAX, substrate + inhibitor, LAC [4] [nA] | IC50 [4] [nM] | Toxic Concentration [5] | Type of Inhibition Tyrosinase [7] | VMAX, substrate + inhibitor, TYR [7] [nA] | Type of Inhibition Laccase [4] | further results |
| --- | --- | --- | --- | --- | --- | --- | --- | --- | --- |
| Oc1ccc(-c2ccc(O)cc2)cc1 [Compound 1, 4,4′-dihydroxy-biphenyl, reference compound] | predominant inhibition of tyrosine oxidation | 2 ± 2.74 |  |  |  |  |  |  | type of tyrosinase inhibition [3]: classical reversible competitive inhibitor |
| Oc1ccc(-c2ccc(O)c(O)c2)cc1O [Compound 2] |  | 4 ± 5.48 |  |  |  |  |  |  | tyrosinase inhibitory activity compared with biphenol 1 [3]: higher tyrosinase inhibitory activity than that of biphenol 1 |
| C=CCc1cc(-c2ccc(O)c(CC=C)c2)ccc1O [Compound 3] |  | 3 ± 2.74 |  |  |  |  |  |  | tyrosinase inhibitory activity compared with biphenol 1 [3]: higher tyrosinase inhibitory activity than that of biphenol 1 |
| Oc1ccccc1-c1ccccc1O [Compound 4] |  |  |  |  |  |  |  |  | pest or weed control at 6400 µg/mL [2]: 3 ± 4.47% |
| Oc1cccc(O)c1-c1c(O)cccc1O [Compound 5] |  | 16 ± 9.62 |  |  |  |  |  |  | tyrosinase inhibitory activity compared with biphenol 1 [3]: higher tyrosinase inhibitory activity than that of biphenol 1 |
| COc1cc(O)cc(-c2cc(O)cc(OC)c2OC)c1OC [Compound 6] |  | 1 ± 2.24 |  |  |  |  |  |  | tyrosinase inhibitory activity compared with biphenol 1 [3]: higher tyrosinase inhibitory activity than that of biphenol 1 |
| COc1cc(C=CC(C)=O)ccc1O [Compound 8] | strongly inhibited the oxidation of dopamine compared to that of tyrosine; also recorded: selectivity towards the diphenolasic phase | 10 ± 7.07 | 78.7±8.8 | 218 | 40 µM |  |  |  | change of cell viability versus H2O2 alone, in words [6]: significant decrease (p < 0.05 vs H2O2) in cells viability at all concentrations tested; H2O2 Damage Protection [6]: n.p. |
| CC(=O)CCc1ccc(O)c(O)c1 [Compound 9] | strongly inhibited the oxidation of dopamine compared to that of tyrosine; also recorded: selectivity towards the diphenolasic phase | 4 ± 6.51 | 90.5±7.4 | 2240 | >10 µM | competitively; also recorded: competitive | 183.2±11.1 | competitively; also recorded: competitive | change of cell viability versus H2O2 alone, in words [6]: significant decrease (p < 0.05 vs H2O2) at a concentration of 20 μM; H2O2 Damage Protection [6]: n.p. |
| COc1cc(/C=C/C(=O)c2ccc(OC)c(OC)c2)ccc1O [Compound 11] | predominant inhibition of tyrosine oxidation | 4 ± 2.24 | 91.0±9.2 | 62 | >10 µM | competitive | 33.0±1.1 | mixed | toxicity to cells in words [5]: toxic to cells |
| COc1cc(C(=O)/C=C/c2ccc(OC)c(OC)c2)ccc1O [Compound 12] | predominant inhibition of tyrosine oxidation | 0 | 49.5±6.1 | 1040 | >1 µM | noncompetitive | 63.0±1.962 | competitive | toxicity to cells in words [5]: toxic to cells |
| COc1cc(/C=C/C(=O)C[C@@H]2O[C@H](CO)[C@@H](O)[C@H](O)[C@H]2O)ccc1O [Compound 13] | predominant inhibition of tyrosine oxidation |  | 114.4±9.5 |  | >20 µM | uncompetitive or mixed; also recorded: uncompetitive | 37.3 ±4.0 | competitive | change of cell viability versus H2O2 alone, in words [6]: significant decrease (p < 0.05 vs H2O2) at a concentration of 20 μM; H2O2 Damage Protection [6]: n.p. |
| COc1cc(/C=C/C(=O)c2cc(OC)c(OC)c(-c3cc(C(=O)/C=C/c4ccc(O)c(OC)c4)cc(OC)c3OC)c2)ccc1O [Compound 14] | predominant inhibition of tyrosine oxidation | 0 | 110.9±2.4 |  | >5 µM | mixed | 48.8±4.67 | mixed | toxicity to cells in words [5]: toxic to cells |
| COc1cc(C(=O)/C=C/c2cc(OC)c(OC)c(-c3cc(/C=C/C(=O)c4ccc(O)c(OC)c4)cc(OC)c3OC)c2)ccc1O [Compound 15] | predominant inhibition of tyrosine oxidation | 0 | 93.8±2.9 | 209 | >5 µM | competitively; also recorded: competitive | 54.3±2.6 | competitively; also recorded: competitive | toxicity to cells in words [5]: toxic to cells |
| COc1ccc(O)c(C(=O)/C=C/c2cc(OC)c(OC)c(-c3cc(/C=C/C(=O)c4cc(OC)ccc4O)cc(OC)c3OC)c2)c1 [Compound 16] |  |  | 139.9±6.4 | 987 | >5 µM | competitively; also recorded: competitive | 22.2±0.6 | competitively; also recorded: competitive | % inhibition of tyrosinase ([1]; comparable with both substrates, tyrosine 80 µM, inhibitor 20 µM, 24 min, dopamine 10-fold diluted solutions, 10 min): about 70%; toxicity to cells in words [5]: toxic to cells |
| CCOC(=O)/C=C/c1cc(OC)c(O)c(-c2cc(/C=C/C(=O)OCC)cc(OC)c2O)c1 [Compound 17] | strongly inhibited the oxidation of dopamine compared to that of tyrosine; also recorded: selectivity towards the diphenolasic phase |  | 96.5±8.3 | 184 | none | uncompetitive or mixed; also recorded: mixed | 73.7±26 | competitive | H2O2 Damage Protection [6]: n.p. |
| OC[C@H]1O[C@@H](Oc2ccc(-c3ccc(O)cc3)cc2)[C@H](O)[C@@H](O)[C@@H]1O [Compound 18, (2S,3R,4S,5S,6R)-2-((4’-hydroxy-[1,1’-biphenyl]-4-yl)oxy)-6-(hydroxymethyl)tetrahydro-2H-pyran-3,4,5-triol] | predominant inhibition of tyrosine oxidation |  | 98.1±3.3 | 2620 | none | competitively; also recorded: competitive | 145.8±17.8 | competitively; also recorded: competitive | change of cell viability versus H2O2 alone, in words [6]: significant decrease (p < 0.05 vs H2O2) in cells viability at all concentrations tested; H2O2 Damage Protection [6]: n.p.; melting point: 260 to 262 °C |
| CC(C)=CCCC(C)(O)/C=C/c1cc(-c2ccc(O)c(/C=C/C(C)(O)CCC=C(C)C)c2)ccc1O (centres unmarked) [Compound 20, 3,3’-bis((E)-3-hydroxy-3,7-dimethylocta-1,6-dien-1-yl)-[1,1’-biphenyl]-4,4’-diol] | strongly inhibited the oxidation of dopamine compared to that of tyrosine; also recorded: selectivity towards the diphenolasic phase | ~65 | 151.6±12.1 | 118 |  | competitively; also recorded: competitive | 77.4±4.3 | competitively; also recorded: competitive | insecticidal activity in words ([2]; mealworm larvae, compared with DFB): some insecticidal activity |
| O=C(NC(=O)c1c(F)cccc1F)Nc1ccc(Cl)cc1 [DFB, N-[(4-chlorophenyl)carbamoyl]-2,6-difluorobenzamide, reference compound] |  |  |  |  |  |  |  |  | pest or weed control at 6400 µg/mL [2]: 97 ± 4.47% |
